Our source for the concentration, IC50 and solubility values is patent publication US5434155A, “Quinoline derivative fumarates” (priority 1992, dated 1995).

What is called IC50 is the point on the concentration scale where inhibition reaches its midpoint. Broadly, the solubility is the concentration that dissolves in the medium under given conditions.

Structures are written as SMILES. In brackets after ≈: the same amount, converted by molar mass. Where two headings read alike, the source gives them in different places.

Data set [1] in a line: Oral absorbability test in mice (drug concentration in plasma). Also noted: species or system 7-Week-old female CDF1 mice. The settings on record: mouse, in vivo. How it is done:
7-Week-old female CDF1 mice were fasted one night before the administration of the test drugs. The drugs were suspended in an aqueous 0.1% TWEEN 80 solution for administration and were forcefully administered in an amount of 100 mg/kg (for the compound No. 2 of Example 1-(c)) and 109 mg/kg (for the compound No. 4 of Comparative Example 1) so as to get the equivalent molarity using a probe for oral administration. Three animals were used for each test group. Blood samples were taken 4 times; 0.5, 1.0, 2.0 and 4.0 hours after the administration. Blood samples were taken by cardiocentesis under anesthesia with chloroform using a heparin-treated disposable injection syringe, Each blood was centrifuged at 4° C. at 6000 rpm for 10 minutes to obtain plasma. Drug concentrations in plasma were measured using HPLC and then calculated from a calibration curve for a standard sample, Results are shown in the following Tables.

The subject of data set [2] is Vincristine-resistant mouse leukemia cells, P388/VCR. The experiment in a line: Carcinostatic-effect-stimulating activity (IC50 of vincristine on vincristine-resistant cells). In kind it is cell-based. As to conditions: 72 h, read-out: IC50 of vincristine. As for the experimental part:
Carcinostatic-effect-stimulating activity
Vincristine-resistant mouse leukemia cells, P388/VCR, were suspended at a concentration of 2×10^4 cells/ml in an RPMI-1640 medium solution containing […]. 2 ml of the cancer cell suspension per tube (12×75 mm) were inoculated and incubated at 37° C. in a 5% CO2 atmosphere. After 6 hours, vincristine and the compound No. 2 of Example 1-(c) at a concentration of 0.3, 1 or 3 microgram/ml and the incubation was continued at 37° C. under a 5% CO2 atmosphere for 72 hours. The cell culture was added to 9.5 ml of ISOTON II, the number of cells was counted using a call counter and then 50% growth inhibiting concentrations of vincristine IC50 (ng/ml) were calculated.

The next data set is described as follows: physchem. In kind it is physicochemical. As to conditions: water. How it is done:
Solubility in water was measured according to the Pharmacopoeia Japan.

Data set [3] in a line: Oral absorbability in dogs (drug concentration in plasma). Type of data set: in vivo, Male beagles (dog). As to conditions: dog. As for the experimental part: Male beagles for experimental use were fasted one night before the administration of the test drugs. The drugs were suspended in a 0.1% TWEEN 80--0.1M NaCl--50 mM phosphate buffer solution for administration. All the drugs were forcefully administered in an amount of 50 mg/kg using an oral probe for dogs. Three animals were used for each test group. Blood samples were taken 9 times; 0.25, 0.5, 1, 1.5, 2, 4, 6, 9 and 24 hours after the administration. Blood samples of 5 ml were taken at each sampling time using a heparin-treated disposable injection syringe. Each blood was centrifuged at 3000 rpm for 15 minutes to obtain plasma. Drug concentrations in plasma were measured using HPLC and then calculated from a calibration curve for a standard sample.

In the case of `O=C(C(c1ccccc1)c1ccccc1)N1CCN(CC(O)COc2cccc3ncccc23)CC1.O=C(O)CC(O)C(=O)O` (stereo not drawn) [compound No. 4, 5-[3-{4-(2,2-diphenylacetyl)piperazin-1-yl)-2-hydroxypropoxy]quinoline malate], the concentration at 0.5 h in data set [1] (female CDF1 mice, oral 109 mg/kg (equivalent molarity), 0.5 hr, read-out: Concentration in plasma, Average of 3 mice) was found to be 14300 ng/mL. Moreover, the concentration at 1 h in data set [1] (female CDF1 mice, oral 109 mg/kg (equivalent molarity), 1.0 hr, read-out: Concentration in plasma, Average of 3 mice) was determined as 11400 ng/mL. In addition, the concentration at 2 h in data set [1] (female CDF1 mice, oral 109 mg/kg (equivalent molarity), 2.0 hr, read-out: Concentration in plasma, Average of 3 mice) is 11900 ng/mL. Also, the concentration at 4 h in data set [1] (female CDF1 mice, oral 109 mg/kg (equivalent molarity), 4.0 hr, read-out: Concentration in plasma, Average of 3 mice) stood at 5990 ng/mL.

Turning to `CC[C@]1(O)C[C@H]2CN(CCc3c([nH]c4ccccc34)[C@@](C(=O)OC)(c3cc4c(cc3OC)N(C=O)[C@H]3[C@@](O)(C(=O)OC)[C@H](OC(C)=O)[C@]5(CC)C=CCN6CC[C@]43[C@@H]65)C2)C1` [vincristine, reference compound], the IC50 in data set [2] was found to be 0.142 µg/mL (≈ 0.172 µM).

In “physchem”, `O=C(C(c1ccccc1)c1ccccc1)N1CCN(CC(O)COc2cccc3ncccc23)CC1.O=C(O)/C=C/C(=O)O` (stereo not drawn) [compound No. 2, 5-[3-{4-(2,2-diphenylacetyl)piperazin-1-yl}-2-hydroxypropoxy]quinoline fumarate] showed a solubility of 1400 µg/mL. The concentration at 0.5 h in data set [3] (plasma, male beagles, oral 50 mg/kg, 0.5 hr, read-out: Concentration in plasma, Average) stood at 14700 ng/mL; in data set [1] (po, 100 mg/kg) it was 18000 ng/mL. For the same molecule, the concentration at 1 h in data set [3] (plasma, male beagles, oral 50 mg/kg, 1 hr, read-out: Concentration in plasma, Average) was 13200 ng/mL; in data set [1] (po, 100 mg/kg), 21800 ng/mL. In data set [3] (plasma, male beagles, oral 50 mg/kg, 1.5 hr, read-out: Concentration in plasma, Average), the concentration at 1.5 h was determined as 12700 ng/mL. Further, the concentration at 2 h in data set [3] (plasma, male beagles, oral 50 mg/kg, 2 hr, read-out: Concentration in plasma, Average) is 10500 ng/mL; in data set [1] (po, 100 mg/kg), 16000 ng/mL. In addition, the concentration at 4 h in data set [3] (plasma, male beagles, oral 50 mg/kg, 4 hr, read-out: Concentration in plasma, Average) amounted to 6760 ng/mL; in data set [1] (po, 100 mg/kg), 13700 ng/mL. Further, the concentration at 6 h in data set [3] (plasma, male beagles, oral 50 mg/kg, 6 hr, read-out: Concentration in plasma, Average) is 3700 ng/mL. Besides, the concentration at 9 h in data set [3] (plasma, male beagles, oral 50 mg/kg, 9 hr, read-out: Concentration in plasma, Average) is 1210 ng/mL. The concentration at 24 h in data set [3] (plasma, male beagles, oral 50 mg/kg, 24 hr) was found to be 30 ng/mL. The IC50 in data set [2] (vincristine with compound at 0.3 microgram/ml) worked out at 0.0569 µg/mL; in data set [2] (vincristine with compound at 1 microgram/ml), 0.022 µg/mL; in data set [2] (vincristine with compound at 3 microgram/ml), 0.00412 µg/mL.

In turn, `O=C(C(c1ccccc1)c1ccccc1)N1CCN(CC(O)COc2cccc3ncccc23)CC1` (stereo not drawn) [compound No. 1, 5-[3-{4-(2,2diphenylacetyl)piperazin-1-yl}-2-hydroxypropoxy]quinoline] registered a solubility in the data set “physchem” of under 1000 µg/mL. In data set [3] (in vivo, po, 50 mg/kg), this molecule registered a concentration at 0.25 h of 2460 ng/mL, a concentration at 0.5 h of 3370 ng/mL, a concentration at 1 h of 4530 ng/mL and a concentration at 1.5 h of 4350 ng/mL. Also, in data set [3] (in vivo, po, 50 mg/kg), the concentration at 2 h amounted to 4180 ng/mL, the concentration at 4 h was determined as 2430 ng/mL, the concentration at 6 h turned out to be 1620 ng/mL and the concentration at 9 h turned out to be 440 ng/mL.
